Results on five substances are retold here after paper PMC3458735, “Design of a novel tryptophan-rich membrane-active antimicrobial peptide from the membrane-proximal region of the HIV glycoprotein, gp41” (Beilstein Journal of Organic Chemistry, 2012).

Where no end group is shown, it is not given here. Bounds are passed on as bounds.

For data set [1] the following is noted: most potent peptide of Lee et al.; cited from earlier work. An excerpt: Other de novo strategies for generating AMPs have been reported in the literature. For instance, Lee et al. recently published a study wherein they synthesized short peptides (5-11 residues) composed of only three amino acids: Lys, Leu and Trp. Their results support the notion that the antimicrobial activity of a peptide is related to peptide amphipathicity and helicity as well as to the location of the Trp residues.

The conditions of data set [2]: 4:4:1 CDCl3:methanol-d3:H2O, 1–2 mg in 500 μL; aggregates persisted at higher temperatures.
Method: Consequently, we chose to use a cosolvent mixture consisting of four parts deuterated chloroform, four parts deuterated methanol and one part water [19–20].
NMR samples were prepared by dissolving 1–2 mg of lyophilized peptide powder in 500 μL of the miscible cosolvent solution, and then the samples were flame sealed in an NMR tube to avoid evaporation of the organic solvents. Two-dimensional NOESY, TOCSY and COSY spectra were collected at 298 K on a Bruker Avance 700 MHz spectrometer. Mixing times in the NOESY and TOCSY experiments were 100 ms and 120 ms, respectively. Spectra were acquired with 4096 × 600 data points in the F1 and F2 dimensions at a spectral width of 8992.806 Hz. Water suppression was achieved by using excitation sculpting [44].
For data set [3] the following is noted: earlier attempts at an NMR structure; cited from earlier work. An excerpt: The lack of antimicrobial activity may be related to the fact that the gp41w peptide appears to oligomerize in solution. […] In terms of the antimicrobial activity, gp41w oligomers may be too large to pass through the peptidoglycan layer surrounding Gram-positive bacteria. Additionally, they would have to disassociate into monomers before the ...

The next data set has as its system S. aureus. The conditions noted are these: for MBC S. aureus: minimum bactericidal concentration; for MIC S. aureus: minimum inhibitory concentration. Here is the method: (§1) The antimicrobial activity for gp41w and its derivatives was determined against Gram-negative E. coli and Gram-positive S. aureus strains (Table 1).
(§2) Minimum inhibitory concentrations (MIC) and minimum bactericidal concentrations (MBC) were determined for E. coli and S. aureus as described previously. Hemolytic activity was also determined by using red blood cells from healthy volunteers, as described previously.

In a further data set the test system is E. coli. The conditions noted are these: for MBC E. coli: minimum bactericidal concentration; for MIC E. coli: minimum inhibitory concentration. Here is the method:
as §1, §2

Data set [4] can be described thus: Tryptophan emission fluorescence in aqueous buffer. The conditions noted are these: 25 °C, excitation 295 nm, a blue-shifted maximum is read as oligomerization in solution. It counts as physicochemical. Here is the method: Tryptophan emission fluorescence of all the gp41w derivatives was performed to examine the microenvironment surrounding the Trp side chains. It is evident that the behaviour of the gp41w peptide is very different from the other peptides. The wavelength of the maximum emission for gp41w occurs at 342 nm, while the other three peptides have maximum emission wavelengths at ~356 nm. The value of 356 nm is normal for an exposed Trp side chain in aqueous solution. […] A shift towards lower wavelengths is usually interpreted as the Trp residue residing in a more hydrophobic environment, which may be due to the gp41w peptides oligomerizing in solution.
Intrinsic tryptophan fluorescence of the peptides was measured on a Cary Eclipse Fluorimeter (Agilent Technologies, Victoria, Australia) equipped with a temperature control unit set at 25 °C. Emission spectra were recorded between 300 and 400 nm with an excitation wavelength of 295 nm. […] The concentration of SDS and DPC in the fluorescence samples was 25 mM, while the lipid concentration in the LUV samples was 30 μM. […] Ksv was calculated by using the formula F0/F = […], Where F0 is the initial fluorescence and F is the fluorescence intensity after the addition of soluble quencher (Q).

Data set [5] has as its system red blood cells from healthy volunteers. Description: Hemolytic activity on red blood cells. The conditions noted are these: for hemolytic concentration: peptide concentration at which red blood cells were lysed. The class given is cell-based, human. Here is the method:
as §2

Data set [6] can be described thus: Acrylamide quenching of Trp fluorescence (Stern-Volmer constant). The class given is physicochemical. The conditions noted are these: acrylamide titration (aliquots of 4 M acrylamide), 25 °C, three separate trials. On the set-up: unit not given here. Here is the method: Acrylamide quenching experiments were performed for the four peptides to examine the accessibility of the Trp fluorophores in the various membrane environments. If a Trp side chain inserts into the hydrophobic core of the bilayer, it becomes less accessible to the effects of the soluble acrylamide quencher. The quenching of Trp fluorescence is directly related to the concentration of quencher, so a titration with the neutral acrylamide allows for the calculation of the Stern–Volmer constant (Ksv), which quantitatively measures the accessibility of the Trp residues in various lipid environments.
Intrinsic tryptophan fluorescence of the peptides was measured on a Cary Eclipse Fluorimeter (Agilent Technologies, Victoria, Australia) equipped with a temperature control unit set at 25 °C. Emission spectra were recorded between 300 and 400 nm with an excitation wavelength of 295 nm. Excitation and emission slits were kept at 5 and 10 nm, respectively, for all the peptides except for gp41w-FKA, which has a single Trp residue, and for which both slit widths were maintained at 10 nm. The concentration of SDS and DPC in the fluorescence samples was 25 mM, while the lipid concentration in the LUV samples was 30 μM. Acrylamide titrations were performed to determine Ksv by adding five aliquots of a 4 M acrylamide solution to the sample and recording an emission spectra using the parameters described above. Ksv was calculated by using the formula F0/F = […], Where F0 is the initial fluorescence and F is the fluorescence intensity after the addition of soluble quencher (Q).

In the next data set the test system is E. coli and S. aureus. Description: Antimicrobial activity, covering both strains. The class given is cell-based. The conditions noted are these: for antimicrobial activity (in words): at the concentrations tested. The protocol:
as §1, §2

Data set [7] is described as follows: Calcein leakage from LUVs. The conditions noted are these: 37 °C, triplicate; for calcein leakage from zwitterionic ePC:ePE LUVs (in words): melittin as positive control; for calcein leakage from zwitterionic ePC:ePE LUVs: highest peptide:lipid ratio tested. Here is the method:
All four peptides were tested for their ability to induce the release of the self-quenching fluorescent dye, calcein, from calcein-encapsulated LUVs.
Melittin (black), a known lytic peptide from honey-bee venom was used as a positive control. All experiments were carried out in triplicate at 37 °C.
Calcein leakage was performed according to established protocols. Melittin, the principal component of bee venom and a known lytic peptide, was used as a positive control. Calcein leakage was measured for LUVs made from lipid mixtures of ePC:ePG, ePE:ePG or ePC:ePE.

In the case of LKWLLKWLL-NH2, the “hemolytic activity (in words)” value in data set [1] is “significant hemolytic activity”.
Regarding KWASLWNWFNITNWLWYIK-NH2 [gp41w], the “solubility in the cosolvent mixture (in words)” value in data set [2] is “did not readily dissolve”. Moreover, in data set [3], the “behaviour in aqueous solution or 40% TFE (in words)” value is recorded as “peptide aggregation or poor solubility”. In addition, in the data set with S. aureus, the “MBC S. aureus” value is above 100 µg/mL and the “MIC S. aureus” value is above 100 µg/mL. In addition, in the data set with E. coli, the “MBC E. coli” value is above 100 µg/mL and the “MIC E. coli” value is above 100 µg/mL. Further, the “wavelength of the maximum Trp emission in aqueous buffer” value in data set [4] came out at 342 nm. In addition, the “concentration below which hemolysis was not observed” value in [5] was at least 500 µg/mL. Besides, in data set [5] (peptide added to red blood cells), the “hemolysis (in words)” value was “minimal hemolysis”. Further, the “Ksv (Stern-Volmer constant) in buffer” value in data set [6] came out at 10.3. In the data set with E. coli and S. aureus (E. coli and S. aureus), the “concentration below which no antimicrobial activity was observed” value was at least 100 µg/mL and the “antimicrobial activity (in words)” value was “inactive”. In [7], the “calcein leakage from zwitterionic ePC:ePE LUVs (in words)” value is listed as “caused leakage, but not to the same extent”.
On to KWARLWRWFRITRWLWYIK-NH2 [gp41w-4R], for which, in the data set on S. aureus, the “MBC S. aureus” value is above 100 µg/mL and the “MIC S. aureus” value is above 100 µg/mL. In the data set with E. coli, the “MBC E. coli” value is above 100 µg/mL and the “MIC E. coli” value is above 100 µg/mL. In addition, the “Hemolysis EC50” value in data set [5] (effective concentration for 50% hemolysis, red blood cells from healthy volunteers) fell in the range of 7 to 14 µg/mL. Besides, in [5], the “hemolytic concentration” value turned out to be 7 µg/mL. Further, the “Ksv (Stern-Volmer constant) in buffer” value in data set [6] turned out to be 27.8. Further, the “antimicrobial activity (in words)” value in the data set on E. coli and S. aureus (E. coli and S. aureus) was “inactive”. The “calcein leakage from zwitterionic ePC:ePE LUVs (in words)” value in [7] was “significant leakage”.
Take KWAKKWKWFAKAAWKWYKK-NH2 [gp41w-KA]: in the data set with S. aureus, the “MBC S. aureus” value was above 100 µg/mL and the “MIC S. aureus” value was above 100 µg/mL. Moreover, in the data set on E. coli, the “MBC E. coli” value was above 100 µg/mL and the “MIC E. coli” value is above 100 µg/mL. Further, in data set [5], the “hemolytic concentration” value was found to be 42 µg/mL. In addition, in data set [6], the “Ksv (Stern-Volmer constant) in buffer” value is on record as 16.4. Also, in the data set on E. coli and S. aureus (E. coli and S. aureus), the “antimicrobial activity (in words)” value was “inactive”. For the same substance, the “calcein leakage from zwitterionic ePC:ePE LUVs” value in [7] was ~ 70%.
Turning to KFAKKFKWFAKAAFKFFKK-NH2 [gp41w-FKA], in the data set with S. aureus, the “MBC S. aureus” value was in the range of 20 to 30 µg/mL and the “MIC S. aureus” value was below 10 µg/mL. Moreover, in the data set on E. coli, the “MBC E. coli” value was 40 to 50 µg/mL and the “MIC E. coli” value was 10 to 30 µg/mL. The “hemolytic concentration” value in data set [5] is 195 µg/mL. Moreover, in data set [6], the “Ksv (Stern-Volmer constant) in buffer” value is recorded as 17.9. Besides, in the data set on E. coli and S. aureus (E. coli and S. aureus), the “antimicrobial activity (in words)” value is “significant antimicrobial activity”. Besides, the “concentrations of bacteriostatic and bactericidal effects” value in the data set with E. coli and S. aureus (range over MIC and MBC of both strains) was in the range of 10 to 50 µg/mL. Further, in data set [7], the “calcein leakage from zwitterionic ePC:ePE LUVs” value is on record as ~ 70%.
